Results taken from ChEMBL document CHEMBL1250471, “Synthesis and antimycobacterial activity of new quinoxaline-2-carboxamide 1,4-di-N-oxide derivatives” (2010).
≈ marks a conversion by molar mass, not a printed value.

Assays:
[1] = system: Mycobacterium tuberculosis; assay: Antimycobacterial activity against Mycobacterium tuberculosis H37Rv ATCC 27294 microplate alamar blue assay; assay type: functional
[2] = Selectivity index, ratio of CC50 for african green monkey Vero cells to MIC for Mycobacterium tuberculosis H37Rv ATCC 27294; assay type: functional

## O=C(Nc1ccccc1)c1c(-c2ccccc2)[n+]([O-])c2ccccc2[n+]1[O-]
[1]
  IC90: 27 µg/mL (≈ 75.5 µM)

## Cc1c(C(=O)NCc2ccc3c(c2)OCO3)[n+]([O-])c2ccccc2[n+]1[O-]
[1]
  IC90: 22.8 µg/mL (≈ 64.4 µM)

## Cc1ccc2c(c1)[n+]([O-])c(C(=O)NCc1ccc(Cl)cc1)c(C)[n+]2[O-]
[1]
  IC90: 14.6 µg/mL (≈ 40.7 µM)

## Cc1ccc(CNC(=O)c2c(C)[n+]([O-])c3cc(Cl)c(Cl)cc3[n+]2[O-])cc1
[1]
  IC90: > 100 µg/mL

## Cc1c(C(=O)NCc2ccc(Cl)cc2)[n+]([O-])c2cc(Cl)c(Cl)cc2[n+]1[O-]
[1]
  IC90: 51.9 µg/mL (≈ 126 µM)

## Cc1c(C(=O)NCc2ccc(Br)cc2)[n+]([O-])c2cc(Cl)c(Cl)cc2[n+]1[O-]
[2]
  Selectivity Index: >5.78
[1]
  IC90: 6.92 µg/mL (≈ 15.1 µM)

## O=C(Nc1ccccc1)c1c(-c2ccccc2)[n+]([O-])c2ccc(Cl)cc2[n+]1[O-]
[2]
  Selectivity Index: 1.34
[1]
  IC90: 6.71 µg/mL (≈ 17.1 µM)

## O=C(NCCc1ccccc1)c1c(-c2ccccc2)[n+]([O-])c2ccc(Cl)cc2[n+]1[O-]
[1]
  IC90: 15.4 µg/mL (≈ 36.7 µM)

## Cc1c(C(=O)NCc2ccc3c(c2)OCO3)[n+]([O-])c2cc(Cl)c(Cl)cc2[n+]1[O-]
[1]
  IC90: 34.9 µg/mL (≈ 82.7 µM)

## O=C(NCc1ccccc1)c1c(-c2ccccc2)[n+]([O-])c2ccc(Cl)cc2[n+]1[O-]
[2]
  Selectivity Index: >11.79
[1]
  IC90: 3.39 µg/mL (≈ 8.35 µM)

## O=C(NCc1ccccc1)c1c(-c2ccccc2)[n+]([O-])c2ccc(C(F)(F)F)cc2[n+]1[O-]
[1]
  IC90: > 100 µg/mL

## Cc1c(C(=O)NCc2ccc(Cl)cc2)[n+]([O-])c2cc(Cl)ccc2[n+]1[O-]
[1]
  IC90: 29.7 µg/mL (≈ 78.5 µM)

## Cc1c(C(=O)NCc2ccc(C(F)(F)F)cc2)[n+]([O-])c2cc(Cl)ccc2[n+]1[O-]
[2]
  Selectivity Index: >6.52
[1]
  IC90: 6.13 µg/mL (≈ 14.9 µM)

## COc1ccc2c(c1)[n+]([O-])c(C(=O)NCc1ccc(C(F)(F)F)cc1)c(C)[n+]2[O-]
[1]
  IC90: > 100 µg/mL

## Cc1c(C(=O)NCc2ccc(Cl)cc2)[n+]([O-])c2ccccc2[n+]1[O-]
[1]
  IC90: 11 µg/mL (≈ 32.1 µM)

## Cc1c(C(=O)NCc2ccc3c(c2)OCO3)[n+]([O-])c2cc(Cl)ccc2[n+]1[O-]
[2]
  Selectivity Index: >5.72
[1]
  IC90: 6.99 µg/mL (≈ 18 µM)

## Cc1ccc(CNC(=O)c2c(C)[n+]([O-])c3ccccc3[n+]2[O-])cc1
[2]
  Selectivity Index: >5.92
[1]
  IC90: 6.76 µg/mL (≈ 20.9 µM)

## O=C(NCc1ccccc1)c1c(-c2ccccc2)[n+]([O-])c2ccccc2[n+]1[O-]
[2]
  Selectivity Index: >5.96
[1]
  IC90: 6.71 µg/mL (≈ 18.1 µM)

## Cc1c(C(=O)NCc2ccc(Br)cc2)[n+]([O-])c2ccccc2[n+]1[O-]
[1]
  IC90: 15.6 µg/mL (≈ 40.2 µM)

## Cc1c(C(=O)NCc2ccc(C(F)(F)F)cc2)[n+]([O-])c2cc(Cl)c(Cl)cc2[n+]1[O-]
[2]
  Selectivity Index: >6.08
[1]
  IC90: 6.58 µg/mL (≈ 14.7 µM)

## O=C(Nc1ccccc1)c1c(-c2ccccc2)[n+]([O-])c2ccc(F)cc2[n+]1[O-]
[1]
  IC90: 17.9 µg/mL (≈ 47.8 µM)

## Cc1ccc2c(c1)[n+]([O-])c(C(=O)NCC(c1ccccc1)c1ccccc1)c(C)[n+]2[O-]
[1]
  IC90: 16.8 µg/mL (≈ 40.6 µM)

## Cc1c(C(=O)NCc2ccc(C(F)(F)F)cc2)[n+]([O-])c2cc(C(F)(F)F)ccc2[n+]1[O-]
[2]
  Selectivity Index: >11.82
[1]
  IC90: 3.38 µg/mL (≈ 7.59 µM)

## Cc1c(C(=O)NCc2ccc(C(F)(F)F)cc2)[n+]([O-])c2cc(F)ccc2[n+]1[O-]
[2]
  Selectivity Index: >8.94
[1]
  IC90: 4.48 µg/mL (≈ 11.3 µM)

## Cc1ccc2c(c1)[n+]([O-])c(C(=O)NCc1ccc(Br)cc1)c(C)[n+]2[O-]
[1]
  IC90: 78.2 µg/mL (≈ 194 µM)

## O=C(NCCc1ccccc1)c1c(-c2ccccc2)[n+]([O-])c2ccccc2[n+]1[O-]
[1]
  IC90: 18.6 µg/mL (≈ 48.3 µM)

## O=C(NCc1ccccc1)c1c(-c2ccccc2)[n+]([O-])c2ccc(F)cc2[n+]1[O-]
[2]
  Selectivity Index: 4.62
[1]
  IC90: 3.86 µg/mL (≈ 9.91 µM)

## CO[C@H]1/C=C/O[C@@]2(C)Oc3c(C)c(O)c4c(O)c(c(/C=N/N5CCN(C)CC5)c(O)c4c3C2=O)NC(=O)/C(C)=C\C=C\[C@H](C)[C@H](O)[C@@H](C)[C@@H](O)[C@@H](C)[C@H](OC(C)=O)[C@@H]1C [RIFAMPIN]
[2]
  Selectivity Index: >800
[1]
  IC90: 0.015 µg/mL (≈ 0.0182 µM)

## Cc1c(C(=O)NCc2ccc(C(F)(F)F)cc2)[n+]([O-])c2ccccc2[n+]1[O-]
[1]
  IC90: 16.8 µg/mL (≈ 44.6 µM)

## COc1ccc2c(c1)[n+]([O-])c(C(=O)Nc1ccccc1)c(-c1ccccc1)[n+]2[O-]
[1]
  IC90: 26.8 µg/mL (≈ 69.3 µM)

## Cc1c(C(=O)NCC(c2ccccc2)c2ccccc2)[n+]([O-])c2cc(Cl)ccc2[n+]1[O-]
[1]
  IC90: 60.4 µg/mL (≈ 139 µM)

## Cc1c(C(=O)NCC(c2ccccc2)c2ccccc2)[n+]([O-])c2ccccc2[n+]1[O-]
[1]
  IC90: 16 µg/mL (≈ 40 µM)

## Cc1c(C(=O)NCC(c2ccccc2)c2ccccc2)[n+]([O-])c2cc(Cl)c(Cl)cc2[n+]1[O-]
[1]
  IC90: 66.5 µg/mL (≈ 142 µM)

## Cc1ccc2c(c1)[n+]([O-])c(C(=O)Nc1ccccc1)c(-c1ccccc1)[n+]2[O-]
[1]
  IC90: 24.6 µg/mL (≈ 66.4 µM)

## Cc1ccc2c(c1)[n+]([O-])c(C(=O)NCc1ccc(C(F)(F)F)cc1)c(C)[n+]2[O-]
[1]
  IC90: > 100 µg/mL

## Cc1ccc(CNC(=O)c2c(C)[n+]([O-])c3ccc(C)cc3[n+]2[O-])cc1
[1]
  IC90: 99.9 µg/mL (≈ 296 µM)

## Cc1ccc2c(c1)[n+]([O-])c(C(=O)NCc1ccc3c(c1)OCO3)c(C)[n+]2[O-]
[1]
  IC90: 13.2 µg/mL (≈ 36 µM)

## O=C(Nc1ccccc1)c1c(-c2ccccc2)[n+]([O-])c2cc(Cl)c(Cl)cc2[n+]1[O-]
[2]
  Selectivity Index: 0.84
[1]
  IC90: 6.63 µg/mL (≈ 15.6 µM)

## Cc1ccc(CNC(=O)c2c(C)[n+]([O-])c3ccc(Cl)cc3[n+]2[O-])cc1
[1]
  IC90: 32 µg/mL (≈ 89.5 µM)

## Cc1c(C(=O)NCc2ccc(Br)cc2)[n+]([O-])c2cc(Cl)ccc2[n+]1[O-]
[2]
  Selectivity Index: >7.5
[1]
  IC90: 5.33 µg/mL (≈ 12.6 µM)

## COc1ccc2c(c1)[n+]([O-])c(C(=O)NCc1ccccc1)c(-c1ccccc1)[n+]2[O-]
[1]
  IC90: 14.6 µg/mL (≈ 36.3 µM)

## O=C(NCc1ccccc1)c1c(-c2ccccc2)[n+]([O-])c2cc(Cl)c(Cl)cc2[n+]1[O-]
[1]
  IC90: 25.4 µg/mL (≈ 57.8 µM)

## O=C(Nc1ccccc1)c1c(-c2ccccc2)[n+]([O-])c2ccc(C(F)(F)F)cc2[n+]1[O-]
[1]
  IC90: 19.1 µg/mL (≈ 44.9 µM)

## Cc1ccc2c(c1)[n+]([O-])c(C(=O)NCc1ccccc1)c(-c1ccccc1)[n+]2[O-]
[1]
  IC90: 13.9 µg/mL (≈ 36.1 µM)
